From PubChem BioAssay (NCI)
Several values for one entry are separate records, joined by “and”; a condition that tells them apart may be missing. Identical values can stand only once.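 Where inhibition never reached the appropriate level, the endpoint shown equals the highest concentration tested. Otherwise, values were interpolated linearly from a five-concentration, 48-hour dose response in 96-well plates. GI50: concentration for 50% inhibition of growth. TGI marks complete inhibition of growth.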

Key:
Assay in all cases: NCI tumour cell line growth inhibition, 48 h
UO-31 renal = system: UO-31 renal
MALME-3M melanoma = system: MALME-3M melanoma
OVCAR-5 ovarian = system: OVCAR-5 ovarian
HL-60(TB) leukemia = system: HL-60(TB) leukemia
A498 renal = system: A498 renal
786-0 renal = system: 786-0 renal
HCC-2998 colon = system: HCC-2998 colon

SMILES | GI50 (UO-31 renal) | TGI (UO-31 renal) | GI50 (MALME-3M melanoma) | TGI (MALME-3M melanoma) | GI50 (OVCAR-5 ovarian) | TGI (OVCAR-5 ovarian) | GI50 (HL-60(TB) leukemia) | TGI (HL-60(TB) leukemia) | GI50 (A498 renal) | TGI (A498 renal) | GI50 (786-0 renal) | TGI (786-0 renal) | GI50 (HCC-2998 colon) | TGI (HCC-2998 colon)
C=C(C)[C@H]1CC/C(C)=C/CCC(C)C(=O)CC/C(CO)=C\[C@@H]1O (stereo partly drawn) | > 100 µM | > 100 µM | 55.3 µM | > 100 µM | > 100 µM | > 100 µM | 45.4 µM | > 100 µM | 68.7 µM | > 100 µM | > 100 µM | > 100 µM | > 100 µM | > 100 µM
COC(=O)CCC1=C(C)c2cc3[n-]c(cc4nc(cc5[n-]c(cc1n2)c(CCC(=O)OC)c5C)C=C4C)cc3C.[Cd+2] | 21.7 µM | 65.7 µM | 2.55 µM | 7.58 µM | 16.8 µM | 39.7 µM |  |  | 9.01 µM | 26.3 µM | 11.3 µM | 39.3 µM | 22.2 µM | > 68.1 µM
C=C(C)C1/C=C(/C(C)C)CC[C@]2(C)O[C@@H]2CC[C@H](C)CC1=O (stereo partly drawn) | 28.6 µM | 98.1 µM | 36.1 µM | > 100 µM | > 100 µM | > 100 µM |  |  | 83.4 µM | > 100 µM | 32.4 µM | > 100 µM | 99.9 µM | > 100 µM
COc1ccc(C(Nc2ncccn2)c2cc3c(cc2O)OCO3)cc1 (stereo not drawn) |  | 34.4 µM |  | 54.6 µM |  | 69.6 µM |  | 46 µM |  | > 100 µM |  | 39.3 µM |  | 47.4 µM
Oc1ccc2ccccc2c1N=Nc1ccccc1 |  | > 100 µM |  | > 100 µM |  | > 100 µM |  | > 100 µM |  | > 100 µM | 35.4 µM and > 100 µM | > 100 µM |  | > 100 µM
COc1ccc([C@H]2O[C@@H](CO)C[C@]2(O)c2ccc(OC)cc2)cc1 | > 100 µM | > 100 µM | > 100 µM | > 100 µM | > 100 µM | > 100 µM | 39.3 µM | > 100 µM | > 100 µM | > 100 µM | > 100 µM | > 100 µM | > 100 µM | > 100 µM
COc1cc(C2C(C#N)=C(N)OC3=C2C(=O)c2ccccc2C3=O)cc(OC)c1OC (stereo not drawn) | 2.79 µM | 21.3 µM | 1.18 µM | 13.7 µM | 4.26 µM | 18.6 µM | 2.28 µM | 6.77 µM | 0.327 µM | 11.8 µM | 5.8 µM | > 100 µM | 2.52 µM | 18.7 µM
Oc1ccccc1-n1c(-c2ccccc2)ccc1-c1ccccc1 | 2.17 µM | 10.6 µM | 2.9 µM | 16.2 µM | 15.2 µM | 48.7 µM | 5.2 µM | > 100 µM | 7.49 µM | 35.8 µM | 13.2 µM | 26.5 µM | 11.2 µM | 29.2 µM
O=C(/C=C/c1ccco1)Nc1ncc(Cc2ccc(F)cc2)s1 | 0.194 µM | > 100 µM | 0.249 µM | > 100 µM | 0.244 µM | > 100 µM | 0.0533 µM | 0.185 µM | 0.027 µM | 0.0975 µM | 0.157 µM | > 100 µM | 0.224 µM | > 100 µM
COc1ccc(-c2ccc(-c3ccc(C(=N)N)cn3)s2)cc1Cl | 1.59 µM | 3.09 µM | 1.3 µM | 2.9 µM | 1.55 µM | 3.02 µM |  |  |  |  | 1.98 µM | 4.03 µM | 1.89 µM | 3.69 µM
CC(C)(C)CC(C)(C)c1ccc(OCCOCCSC(=N)N)cc1 | 1.75 µM | 3.91 µM |  |  | 2.4 µM | 6.5 µM | 1.79 µM | 3.58 µM |  |  | 1.71 µM | 3.46 µM | 1.25 µM | 2.56 µM
CC(=O)Oc1cccc2c1C(=O)c1c(OC(C)=O)cc(C)cc1C2=O |  |  |  | > 100 µM |  | > 100 µM |  | > 100 µM |  | > 100 µM |  | 72.5 µM |  | > 100 µM
O=C1/C(=C/c2cccs2)CCC/C1=C\c1cccs1 | > 42.7 µM | > 85.7 µM | > 48.8 µM | > 100 µM | > 100 µM | > 100 µM | > 100 µM | > 100 µM | 31.4 µM | > 100 µM | 49.8 µM | > 100 µM | > 100 µM | > 100 µM
O=Nc1c(O)ccc2ccccc12 | 1.1 µM | 4.79 µM |  |  | 1.83 µM | 3.44 µM | 2.42 µM | 6.04 µM | 16.7 µM | 31.4 µM | 10.2 µM | 22 µM | 13.4 µM | 27.9 µM
COc1ccc(/C=C2\N=C3SC=C(N)N3C2=O)cc1 | 0.266 µM | 1.61 µM | 0.23 µM | 1.52 µM | 2.13 µM | 12 µM | 1.12 µM | 4.6 µM | 0.177 µM | 1.37 µM | 1.28 µM | 2.7 µM | 1.65 µM | 3.28 µM
COc1ccccc1-n1c(SCc2cc(OC)c(OC)c(OC)c2)nc2ccc(Cl)cc2c1=O | 8.52 µM | > 100 µM | 8.76 µM | > 100 µM | 7.47 µM | > 100 µM | 2.99 µM | 18.7 µM | 1.76 µM | 48.2 µM | 4.46 µM | > 100 µM | 7.8 µM | > 100 µM
O=C(/C=C/c1cccc(Cl)c1)c1ccc(Cl)cc1Cl | 11.4 µM | 25.8 µM |  |  | 12.2 µM | 27.2 µM | 25.3 µM | > 50 µM | 9.71 µM | 27.7 µM | 12.9 µM | 27.6 µM | 1.14 µM | 2.52 µM
CC(=O)OC1CCC2(C)C(=CC(C3C=C4CC(OC(C)=O)CCC4(C)C4=C3C3CC5OC6(CCC(C)CO6)C(C)C5C3(C)CC4)C3=C2CCC2(C)C3CC3OC4(CCC(C)CO4)C(C)C32)C1 (stereo not drawn) |  | 28.9 µM |  | 26.4 µM |  | 35.9 µM |  |  |  | 30.8 µM |  | 29.6 µM |  | 
COc1ccc2c(c1)OC13Oc4cc(OC)ccc4C=C1CCCC3=C2 |  |  | > 100 µM | > 100 µM | > 100 µM | > 100 µM | > 100 µM | > 100 µM | > 100 µM | > 100 µM | > 100 µM | > 100 µM | > 100 µM | > 100 µM
